Entries after “also recorded” stand apart in the source; their conditions may differ.
What was measured:
Assay type in all cases: in vivo, human
HCC patients [1] = assay: Overall survival of HCC patients stratified by greater or smaller decrease in immune parameters after sorafenib treatment
Description: FIGS. 15A-15D. […] Overall survival of patients was calculated based on the status of (FIG. 15A) absolute numbers of CD4^+PD-1^+ T cells (FIG. 15B) CD8^+PD-1^+ T cells (FIG. 15C) expression levels of PD-1 (MFI) on CD8^+ T cells (FIG. 15D) absolute numbers of CD4^+Foxp3^+ T cells.
FIGS. 18A-18R. […] Overall survival of patients was calculated based on the status of (FIG. 18A) frequency of CD4^+Foxp3^+ Tregs (FIG. 18B) frequency of GARP^+Foxp3^+ Tregs (FIG. 18C) expression levels of GARP (MFI) on Foxp3^+ Tregs (FIG. 18D) frequency of CTLA-4^+Foxp3^+ Tregs (FIG. 18E) absolute number of CD4^+Foxp3^+ Tregs (FIG. 18F) expression levels of CTLA-4 (MFI) on Foxp3^+ Tregs (FIG. 18G) frequency of CD11b^+CD33^+ MDSC (FIG. 18H) absolute number of CD11b^+CD33^+ MDSC (FIG. 18I) frequency of CD4^+PD-1^+ T cells (FIG. 18J) expression levels of PD-1 (MFI) on CD4^+ T cells (FIG. 18K) frequency of Foxp3^+PD-1^+ T cells (FIG. 18L) absolute number of Foxp3^+PD-1^+ T cells (FIG. 18M) expression levels of PD-1 (MFI) on Foxp3^+CD4^+ T cells (FIG. 18N) frequency of CD8^+PD-1^+ T cells (FIG. 18O) IL-10 (FIG. 18P) TGF-β1 (FIG. 18Q) IFN-γ (FIG. 18R) IL-1β.
(§1) Plasma levels of both pro-inflammatory and immunosuppressive cytokines were determined by ELISA.
(§2) This study was approved by institutional review board of Roswell Park Cancer Institute (RPCI), Buffalo, N.Y. and informed consent was obtained from all participants. Heparinized peripheral blood samples were obtained from HCC patients before the initiation of sorafenib treatment and after four weeks or more of oral sorafenib treatment, through Data Bank and Biorepository at RPCI.

IFN-γ = assay: Plasma cytokine ELISA pre and post sorafenib treatment: IFN-γ; settings: pre vs post sorafenib
Description: (§3) Plasma isolated during PBMC separation was assayed to quantify the level of IFN-γ, IL-10, and TGF-β1 using specific ELISA kits according to the manufacturer's instructions (eBioscience).
as §1, §2
(§4) PBMCs were isolated immediately by Ficoll-Paque Plus density gradient centrifugation and cryopreserved. Plasma was isolated and stored at −80° C. and used for measurement of immunosuppressive and immunostimulatory cytokines as described previously. Frequency, phenotype and functionality of immune cells after blocking immune check points were analyzed by multi-parameter flow cytometry.

IL-10 = assay: Plasma cytokine ELISA pre and post sorafenib treatment: IL-10; settings: pre vs post sorafenib
Description: as §3, §1, §2, §4

IL-1β = assay: Plasma cytokine ELISA pre and post sorafenib treatment: IL-1β; settings: pre vs post sorafenib, P<0.11, FIG. 17A
Description: as §3, §1, §2, §4

Foxp3+ Tregs = assay: Multi-parametric flow cytometry of Tregs in PBMC of HCC patients pre and post sorafenib treatment; settings: pre vs post sorafenib
Description: (§5) FACS analysis was performed to measure peripheral blood Treg frequency using APC-H7 anti-CD3, V450 anti-CD4, PE anti-CD127, PE-Cy5 anti-CTLA-4 (BD Biosciences) and PE-Cy7 anti-PD-1, Alexa488 anti-Foxp3 (Biolegend). Detection of surface GARP levels was achieved by using mouse anti-human GARP (Enzo Life Sciences) followed by staining with PE F(ab′)2 goat anti-mouse IgG (Jackson ImmunoResearch Laboratories). Cells were incubated with normal mouse IgG for 10 min prior to surface and intracellular staining. Intracellular analysis for Foxp3 and CTLA-4 was performed after fixation and permeabilization of cells using intracellular staining kit (eBioscience) according to manufacturer's instructions. All samples were acquired on LSRII flow cytometer (BD Biosciences) and analyzed using Flowjo Model Fit (Tree Star).
as §1, §2, §4

HCC patients [2] = assay: PD-1 status and survival of HCC patients treated with sorafenib (Example 2)
Text: The individual data points in the figures represent each patient.

HCC patients [3] = assay: Overall survival of HCC patients stratified by greater or smaller decrease in immune parameters after sorafenib treatment; settings: log-rank P<0.30, FIG. 18E
TGF-β1 = assay: Plasma cytokine ELISA pre and post sorafenib treatment: TGF-β1; settings: pre vs post sorafenib
Description: as §3, §1, §2, §4

PD-1+ T cells = assay: Multi-parametric flow cytometry of PD-1+ T cells in PBMC of HCC patients pre and post sorafenib treatment; settings: pre vs post sorafenib
Description: as §5, §1
This study was approved by institutional review board of Roswell Park Cancer Institute (RPCI), Buffalo, N.Y. and informed consent was obtained from all participants.
as §4

CD11b+CD33+ MDSC = assay: Multi-parametric flow cytometry of MDSC in PBMC of HCC patients pre and post sorafenib treatment; settings: pre vs post sorafenib
Description: MDSC in the peripheral blood were detected using FITC anti-CD11b (eBioscience), PE-Cy5 anti-CD33, APC anti-CD14, V450 anti-HLA-DR (BD Biosciences).
as §1, §2, §4

How did the “overall survival, greater decrease in PD-1 expression levels on CD4+ T cells after sorafenib” value (HCC patients [1]; AFT models, AFT β P<0.04) turn out when CNC(=O)c1cc(Oc2ccc(NC(=O)Nc3ccc(Cl)c(C(F)(F)F)c3)cc2)ccn1 [sorafenib] was run?
Its value is “better overall survival benefit”.

What about the “overall survival, greater decrease in absolute number of MDSC after sorafenib” value (HCC patients [1]; AFT models, AFT β P<0.05) of the same compound?
The value was “better prognosis; also recorded: significant correlation with overall survival”.

What about the “overall survival, greater decrease in percentage of MDSC after sorafenib” value (HCC patients [1]; AFT models, AFT β P<0.05) of the same compound?
Its value is “better prognosis; also recorded: significant correlation with overall survival”.

What about the “overall survival vs absolute numbers of Foxp3+ Tregs post-sorafenib treatment” value (HCC patients [1]; log-rank P<0.01, FIG. 15D) of the same compound?
The value was “statistically significant improvement in overall survival; also recorded: significant correlation with overall survival”.

What about the “overall survival, greater vs smaller decrease in absolute number of PD-1+CD4+ T cells after sorafenib” value (HCC patients [1]; log-rank P<0.04, FIG. 15A) of the same compound?
Its value is “significant interaction term; also recorded: significantly improved overall survival rate”.

And the “overall survival, greater vs smaller decrease in absolute number of CD8+PD-1+ T cells after sorafenib” value (HCC patients [1]; log-rank P<0.04, FIG. 15B)?
Its value is “significant interaction term; also recorded: significant improvement in overall survival”.

And the “overall survival, greater vs smaller decrease in PD-1 expression levels on CD8+ T cells after sorafenib” value (HCC patients [1]; log-rank P<0.04, FIG. 15C)?
The value was “significant improvement in overall survival”.

What about the “overall survival, greater vs smaller decrease in frequency of CTLA-4+ Tregs after sorafenib” value (HCC patients [1]; log-rank P<0.51, FIG. 18D) of the same compound?
The value was “no significant differences in the overall survival”.

What about the “overall survival vs changes in levels of TGF-β1 after sorafenib” value (HCC patients [1]; log-rank P<0.61, FIG. 18P) of the same compound?
Its value is “none of these cytokines showed any significant association; also recorded: non-significant interaction term”.

What about the “overall survival vs changes in levels of IFN-γ after sorafenib” value (HCC patients [1]; log-rank P<0.62, FIG. 18Q) of the same compound?
Its value is “none of these cytokines showed any significant association; also recorded: non-significant interaction term”.

And the “overall survival vs changes in levels of IL-10 after sorafenib” value (HCC patients [1]; log-rank P<0.73, FIG. 18O)?
Its value is “none of these cytokines showed any significant association; also recorded: non-significant interaction term”.

And the “overall survival vs changes in levels of IL-1β after sorafenib” value (HCC patients [1]; log-rank P<0.92, FIG. 18R)?
Its value is “non-significant interaction term”.

And the “95% CI of change in levels of IFN-γ after sorafenib treatment” value (IFN-γ; FIG. 17D)?
Its value is −1.07 to 23.64.

What about the “plasma levels of IFN-γ after sorafenib treatment” value (IFN-γ; P<0.04, FIG. 17D) of the same compound?
The value was “concomitant increase; also recorded: significantly increased”.

And the “95% CI of change in levels of IL-10 after sorafenib treatment” value (IL-10; FIG. 17B)?
Its value is −63.30 to −4.9.

And the “plasma levels of IL-10 after sorafenib treatment” value (IL-10; P<0.03, FIG. 17B)?
The value was “significant decrease”.

What about the “plasma levels of IL-1β after sorafenib treatment” value (IL-1β) of the same compound?
The value was “did not show any significant decrease”.

What about the “95% CI of change in frequency of CD3+CD4+Foxp3+ Tregs after sorafenib treatment” value (Foxp3+ Tregs; FIG. 16A) of the same compound?
The value was −0.44 to −1.16.

What about the “95% CI of change in absolute numbers of CD3+CD4+Foxp3+ Tregs after sorafenib treatment” value (Foxp3+ Tregs; FIG. 16B) of the same compound?
The value was −9.48 to −3.55.

And the “95% CI of change in frequency of Foxp3+CTLA-4+ Tregs after sorafenib treatment” value (Foxp3+ Tregs; FIG. 16C)?
The value was −3.18 to −0.82.

And the “95% CI of change in absolute number of Foxp3+CTLA-4+ Tregs after sorafenib treatment” value (Foxp3+ Tregs; FIG. 16D)?
The value was −8.42 to −6.32.

And the “frequency of CD3+CD4+Foxp3+ Tregs after sorafenib treatment” value (Foxp3+ Tregs; P<0.02, FIG. 16A)?
The value was “significant decrease”.

What about the “frequency of Foxp3+CTLA-4+ Tregs after sorafenib treatment” value (Foxp3+ Tregs; P<0.02, FIG. 16C) of the same compound?
The value was “Marked reduction”.

And the “absolute numbers of CD3+CD4+Foxp3+ Tregs after sorafenib treatment” value (Foxp3+ Tregs; P<0.05, FIG. 16B)?
Its value is “significant decrease”.

What about the “absolute number of Foxp3+CTLA-4+ Tregs after sorafenib treatment” value (Foxp3+ Tregs; P<0.05, FIG. 16D) of the same compound?
The value was “Marked reduction”.

And the mean survival time (HCC patients [2]; group where PD-1 was decreased)?
Its mean survival time is 688 days.

And the mean survival (HCC patients [2]; group which did not show a decrease in PD-1)?
The mean survival was 168 days.

What about the “overall survival, greater vs smaller decrease in absolute number of CTLA-4+ Tregs after sorafenib” value (HCC patients [3]) of the same compound?
The value was “no significant differences in the overall survival”.

And the “95% CI of change in levels of TGF-β1 after sorafenib treatment” value (TGF-β1; FIG. 17C)?
The value was −151.50 to −48.55.

What about the “plasma levels of TGF-β1 after sorafenib treatment” value (TGF-β1; P<0.03, FIG. 17C) of the same compound?
The value was “significant decrease”.

And the “95% CI of change in expression levels (MFI) of PD-1 on CD4+ T cells after sorafenib treatment” value (PD-1+ T cells; FIG. 14B)?
The value was −56.51 to −12.09 MFI.

What about the “expression levels (MFI) of PD-1 on CD4+ T cells after sorafenib treatment” value (PD-1+ T cells; P<0.02, FIG. 14B) of the same compound?
Its value is “significantly decreased”.

And the “absolute number of CD4+Foxp3+PD-1+ T cells after sorafenib treatment” value (PD-1+ T cells; P<0.04, FIG. 14C)?
Its value is “significantly decreased”.

What about the “absolute number of CD8+PD-1+ T cells after sorafenib treatment” value (PD-1+ T cells; P<0.15, FIG. 14E) of the same compound?
The value was “did not show any significant decrease”.

What about the “frequency of CD8+PD-1+ T cells after sorafenib treatment” value (PD-1+ T cells; P<0.20, FIG. 14D) of the same compound?
The value was “did not show any significant decrease”.

And the “level of expression of PD-1 on CD8+ T cells (MFI) after sorafenib treatment” value (PD-1+ T cells; P<0.31, FIG. 14F)?
The value was “did not show any significant decrease”.

And the “frequency of CD4+PD-1+ T cell after sorafenib treatment” value (PD-1+ T cells; n=19, P<0.01, FIG. 14A)?
The value was “significantly reduced”.

What about the “frequency of CD11b+CD33+ MDSC after sorafenib treatment” value (CD11b+CD33+ MDSC; P<0.61, FIG. 16E) of the same compound?
The value was “did not significantly impact; also recorded: did not have any significant influence”.

What about the “absolute number of CD11b+CD33+ MDSC after sorafenib treatment” value (CD11b+CD33+ MDSC; P<0.92, FIG. 16F) of the same compound?
The value was “did not significantly impact; also recorded: did not have any significant influence”.

— patent US10738119B2, “Combination therapy for hepatocellular carcinoma” (Health Research, Inc., priority 2014, dated 2020)
